Measured values published in patent publication US20210317092A1 (BAYER PHARMA AKTIENGESELLSCHAFT, priority 2016, published 2021).
Like-named read-outs stand apart in the source and are kept apart here.

Tests used:
[1] = molecular target: T1, native human Bradykinin B1 receptor (Homo sapiens, UniProt P46663); assay: Calcium flux Assay (FLIPR) with human fibroblasts expressing Bradykinin B1 receptor (hB1 IMR-90); type: cell-based; settings: IMR-90 human fibroblasts expressing native Bradykinin B1 receptor
T1 construct: which express native human Bradykinin B1 receptor after induction with human IL-10; Coriell Institute; host or cells: IMR-90 human foetal lung fibroblasts, cytokine-induced
T1 sequence (P46663 1-353): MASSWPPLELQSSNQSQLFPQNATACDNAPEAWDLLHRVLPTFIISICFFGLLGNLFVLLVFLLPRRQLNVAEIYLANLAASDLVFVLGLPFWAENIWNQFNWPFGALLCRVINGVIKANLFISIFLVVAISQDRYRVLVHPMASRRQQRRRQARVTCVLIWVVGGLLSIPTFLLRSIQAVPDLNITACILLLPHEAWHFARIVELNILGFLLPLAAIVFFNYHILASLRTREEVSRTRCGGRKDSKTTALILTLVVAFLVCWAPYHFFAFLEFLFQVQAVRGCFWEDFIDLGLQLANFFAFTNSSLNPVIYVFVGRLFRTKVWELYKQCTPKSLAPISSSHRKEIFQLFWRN
Procedure, shortened: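 IMR-90 human foetal lung fibroblasts induced with 0.35 ng/mL […] for 3 h, Fluo-4/AM-loaded, preincubated with compound (8 concentrations, triplicate) for 30 min at 28 °C, then challenged with Lys-(Des-Arg)-bradykinin at EC90. Ca2+ fluorescence was read at 538 nm; full inhibition set by 20 µM Lys-(Des-Arg-Leu)-bradykinin; IC50 derived.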

[2] = molecular target: T2, human Bradykinin B1 receptor (Homo sapiens, UniProt P46663); assay: Calcium flux Assay (FLIPR) with recombinant CHO-K1 cells expressing human Bradykinin B1 receptor, in presence (hB1 IC50) or absence (hB1 free IC50) of 0.1% BSA; type: cell-based
T2 construct: host or cells: CHO-K1
T2 sequence (P46663 1-353): T1 sequence (P46663 1-353)

[3] = in absence of 0.1% BSA, read-out: hB1 free IC50
[4] = in presence of 0.1% BSA, read-out: hB1 IC50

Structure (SMILES)	IC50 [1]	IC50 [2, 3]	IC50 [2, 4]
COc1cc(-c2ccc(NC(=O)C3(c4ccc(C(F)(F)F)cc4F)CC3)cc2-c2nnn[nH]2)cnc1C(F)(F)F [Example 147, 1-[2-fluoro-4-(trifluoromethyl)phenyl]-N-{4-[5-methoxy-6-(trifluoromethyl)pyridin-3-yl]-3-(1H-tetrazol-5-yl)phenyl} cyclopropane-carboxamide]	36.3 nM	35.3 nM	
CC(C)Oc1ccc(-c2ccc(NC(=O)C3(c4cccc(Cl)c4)CC3)cc2-c2nnn[nH]2)cn1 [Example 148, 1-(3-chlorophenyl)-N-[4-(6-isopropoxy-pyridin-3-yl)-3-(1H-tetrazol-5-yl)phenyl] cyclopropane-carboxamide]	18.5 nM	1.94 nM	20 nM
CC(C)Oc1ccc(-c2ccc(NC(=O)C3(c4ccc(C(F)(F)F)cc4)CC3)cc2-c2nnn[nH]2)cn1 [Example 149, N-[4-(6-isopropoxy-pyridin-3-yl)-3-(1H-tetrazol-5-yl)phenyl]-1-[4-(trifluoromethyl)phenyl] cyclopropane-carboxamide]	11.8 nM	6.35 nM	14.4 nM
COc1cncc(-c2ccc(NC(=O)C3(c4cccc(Cl)c4)CC3)cc2-c2nnn[nH]2)c1 [Example 153, 1-(3-chlorophenyl)-N-[4-(5-methoxypyridin-3-yl)-3-(1H-tetrazol-5-yl)phenyl] cyclopropane-carboxamide]	18.6 nM	3.64 nM	26.2 nM
CCOc1cncc(-c2ccc(NC(=O)C3(c4ccc(C(F)(F)F)cc4)CC3)cc2-c2nnn[nH]2)c1 [Example 156, N-[4-(5-ethoxypyridin-3-yl)-3-(1H-tetrazol-5-yl)phenyl]-1-[4-(trifluoromethyl)phenyl] cyclopropane-carboxamide]	84.6 nM	36.6 nM	27.5 nM
CCOc1ncc(-c2ccc(NC(=O)C3(c4cccc(Cl)c4)CC3)cc2-c2nnn[nH]2)cc1C [Example 160, 1-(3-chlorophenyl)-N-[4-(6-ethoxy-5-methylpyridin-3-yl)-3-(1H-tetrazol-5-yl)phenyl] cyclopropane-carboxamide]	26.7 nM	8.13 nM	47.7 nM
CCOc1ncc(-c2ccc(NC(=O)C3(c4cccc(Cl)c4)CC3)cc2-c2nnn[nH]2)cc1F [Example 163, 1-(3-chlorophenyl)-N-[4-(6-ethoxy-5-fluoropyridin-3-yl)-3-(1H-tetrazol-5-yl)phenyl] cyclopropane-carboxamide]	28.9 nM	14.2 nM	28.1 nM
CN(C)c1ccc(-c2ccc(NC(=O)C3(c4cccc(Cl)c4F)CC3)cc2-c2nnn[nH]2)cn1 [Example 168, 1-(3-chloro-2-fluorophenyl)-N-{4-[6-(dimethylamino)pyridin-3-yl]-3-(1H-tetrazol-5-yl)phenyl} cyclopropane-carboxamide]	27.7 nM	58.6 nM	88.1 nM
O=C(Nc1ccc(-c2ccnc(C(F)(F)F)c2)c(-c2nnn[nH]2)c1)C1(c2cccc(Cl)c2)CC1 [Example 171, 1-(3-chlorophenyl)-N-{3-(1H-tetrazol-5-yl)-4-[2-(trifluoromethyl)pyridin-4-yl]phenyl} cyclopropane-carboxamide]	281 nM	422 nM	358 nM
O=C(Nc1ccc(-c2ccnc(C(F)(F)F)c2)c(-c2nnn[nH]2)c1)C1(c2ccc(C(F)(F)F)cc2F)CC1 [Example 173, 1-[2-fluoro-4-(trifluoromethyl)phenyl]-N-{3-(1H-tetrazol-5-yl)-4-[2-(trifluoromethyl)pyridin-4-yl]phenyl} cyclopropane-carboxamide]	92.4 nM	86.5 nM	

Next, values leading:

IC50 [1]	IC50 [2, 3]	IC50 [2, 4]	Structure (SMILES)
687 nM	216 nM		O=C(Nc1ccc(-c2ccnc(C(F)(F)F)c2)c(-c2nnn[nH]2)c1)C1(c2ccc(Cl)cc2F)CC1 [Example 175, 1-(4-chloro-2-fluorophenyl)-N-{3-(1H-tetrazol-5-yl)-4-[2-(trifluoromethyl)pyridin-4-yl]phenyl} cyclopropane-carboxamide]
7.29 nM	20.8 nM	14.8 nM	CCc1cc(-c2ccc(NC(=O)C3(c4cccc(Cl)c4)CC3)cc2-c2nnn[nH]2)ccn1 [Example 181, 1-(3-chlorophenyl)-N-[4-(2-ethylpyridin-4-yl)-3-(1H-tetrazol-5-yl)phenyl] cyclopropane-carboxamide]
11.1 nM	54.4 nM	33 nM	CCOc1ncc(-c2ccc(NC(=O)C3(c4cccc(Cl)c4F)CC3)cc2-c2nnn[nH]2)cn1 [Example 183, 1-(3-chloro-2-fluorophenyl)-N-[4-(2-ethoxypyrimidin-5-yl)-3-(1H-tetrazol-5-yl)phenyl] cyclopropane-carboxamide]
22.3 nM	24.6 nM	50.5 nM	CCOc1ncc(-c2ccc(NC(=O)C3(c4cccc(Cl)c4)CC3)cc2-c2nnn[nH]2)cn1 [Example 184, 1-(3-chlorophenyl)-N-[4-(2-ethoxypyrimidin-5-yl)-3-(1H-tetrazol-5-yl)phenyl] cyclopropane-carboxamide]
340 nM	189 nM	250 nM	CO[C@H]1CC[C@H](c2ccc(NC(=O)C3(c4cccc(Cl)c4)CC3)cc2-c2nnn[nH]2)CC1 [Example 190, 1-(3-chlorophenyl)-N-[4-(trans-4-methoxy-cyclohexyl)-3-(1H-tetrazol-5-yl)phenyl] cyclopropane-carboxamide]
20.5 nM	11.8 nM		O=C(Nc1ccc(-c2ccc(C(F)(F)F)nc2)c(-c2nnn[nH]2)c1)C1(c2ccc(C(F)(F)F)cc2F)CC1 [Example 191, 1-[2-fluoro-4-(trifluoromethyl)phenyl]-N-{3-(1H-tetrazol-5-yl)-4-[6-(trifluoromethyl)pyridin-3-yl]phenyl} cyclopropane-carboxamide]
29.1 nM	33.9 nM		O=C(Nc1ccc(-c2ccc(C(F)(F)F)nc2)c(-c2nnn[nH]2)c1)C1(c2ccc(Cl)cc2F)CC1 [Example 192, 1-(4-chloro-2-fluorophenyl)-N-{3-(1H-tetrazol-5-yl)-4-[6-(trifluoromethyl)pyridin-3-yl]phenyl} cyclopropane-carboxamide]
80.6 nM	95.3 nM		O=C(Nc1ccc(-c2ccc(C(F)(F)F)nc2)c(-c2nnn[nH]2)c1)C1(c2ccc(F)c(F)c2)CC1 [Example 193, 1-(3,4-difluorophenyl)-N-{3-(1H-tetrazol-5-yl)-4-[6-(trifluoromethyl)pyridin-3-yl]phenyl} cyclopropane-carboxamide]
1450 nM	759 nM	1370 nM	O=C(Nc1ccc(-c2cnc(C(F)(F)F)nc2)c(-c2nnn[nH]2)c1)C1(c2cccc(Cl)c2)CC1 [Example 196, 1-(3-chlorophenyl)-N-{3-(1H-tetrazol-5-yl)-4-[2-(trifluoromethyl)pyrimidin-5-yl]phenyl} cyclopropane-carboxamide]
50.9 nM	83.2 nM		CC(F)(F)c1ccc(-c2ccc(NC(=O)C3(c4cccc(Cl)c4)CC3)cc2-c2nnn[nH]2)cn1 [Example 202, 1-(3-chlorophenyl)-N-{4-[6-(1,1-difluoroethyl)pyridin-3-yl]-3-(1H-tetrazol-5-yl)phenyl} cyclopropane-carboxamide]
36.7 nM	92.2 nM		O=C(Nc1ccc(-c2ccc(C(F)(F)F)nc2)c(-c2nnn[nH]2)c1)C1(c2ccc(Cl)cc2)CC1 [Example 203, 1-(4-chlorophenyl)-N-{3-(1H-tetrazol-5-yl)-4-[6-(trifluoromethyl)pyridin-3-yl]phenyl} cyclopropane-carboxamide]
14.9 nM	22.4 nM		O=C(Nc1ccc(-c2ccc(C(F)F)nc2)c(-c2nnn[nH]2)c1)C1(c2ccc(F)c(F)c2)CC1 [Example 207, N-{4-[6-(difluoromethyl)pyridin-3-yl]-3-(1H-tetrazol-5-yl)phenyl}-1-(3,4-difluorophenyl) cyclopropane-carboxamide]
11.2 nM	22.6 nM	15.8 nM	Cc1ccc(-c2ccc(NC(=O)C3(c4cccc(Cl)c4)CC3)cc2-c2nnn[nH]2)cn1 [Example 208, 1(3-chlorophenyl)-N-[4-(6-methylpyridin-3-yl)-3-(1H-tetrazol-5-yl)phenyl] cyclopropane-carboxamide]
3.05 nM	2.96 nM		Cc1ccc(-c2ccc(NC(=O)C3(c4ccc(C(F)(F)F)cc4F)CC3)cc2-c2nnn[nH]2)cn1 [Example 209, 1-[2-fluoro-4-(trifluoromethyl)phenyl]-N-[4-(6-methylpyridin-3-yl)-3-(1H-tetrazol-5-yl)phenyl] cyclopropane-carboxamide]
19.1 nM	10.5 nM	23.1 nM	Cc1cc(-c2ccc(NC(=O)C3(c4cccc(Cl)c4F)CC3)cc2-c2nnn[nH]2)ccn1 [Example 211, 1-(3-chloro-2-fluorophenyl)-N-[4-(2-methylpyridin-4-yl)-3-(1H-tetrazol-5-yl)phenyl] cyclopropane-carboxamide]
